Legend:
[1] = tested on: Adrenocorticotrophic hormone (ACTH); assay: Systemic effects: ACTH suppression in adrenalectomised rats; format: in vivo, rat; details: single intra-tracheal, adrenalectomised male CD rats, plasma ACTH at 4 h
Description: (ii) Systemic effects--ACTH suppression in adrenalectomised rats
Male CD rats (90-120 g) were adrenalectomised under Isoflurane anaesthesia and drinking water was supplemented with 0.9% saline. Four days later the animals receive a single intra-tracheal dose (under Isoflurane anaesthesia) of compound suspended in saline (containing 0.2% Tween-80, 0.2 ml) at 10 am. After 4 h animals are sacrificed by administration of Euthetal and blood samples are taken by intra-cardiac puncture and collected into heparinised tubes. The samples are centrifuged (20 minutes at 1000 RPM at 4 deg C.), the plasma is collected and assayed by Radioimmunoassay (RIA) for Adrenocorticotrophic hormone (ACTH) using a DPC double antibody RIA kit. Intact and vehicle control groups were included in each experiment in order to account for diurnal variation in ACTH and effects of vehicle. Results are calculated with respect to the RIA standard curve and expressed as ACTH pg/ml plasma, allowing percentage reduction in ACTH to be calculated.

rat ear oedema = assay: Anti-inflammatory activity: inhibition of rat ear oedema (croton oil); format: in vivo; details: dose 100 μg, topical to ear with 5% croton oil in acetone, male rats, 6 hours
Description: (i) Anti-inflammatory Activity--Inhibition of rat ear oedema
The test compounds are dissolved in acetone and 40 ul containing 5% croton oil is applied to the inner surface of each of the ears of 60-80 g male rats. Animals are killed 6 hours later and the ears are removed. Standard size (0.5 cm diameter) discs are punched out and the discs weighed. Mean weight of the ear discs is calculated and from this percentage inhibition of ear inflammation in relation to croton oil alone treated ears are calculated.

Structure (SMILES)	% Reduction in ACTH ([1]; dose 1 μg) [%]	% Reduction in ACTH ([1]; dose 5 μg) [%]	% Inhibition (ear inflammation) (rat ear oedema) [%]	% Reduction in ACTH ([1]; dose 500 μg) [%]
CC1(C)O[C@@H]2C[C@H]3[C@@H]4C[C@H](F)C5=CC(=O)C=C[C@]5(C)[C@@]4(F)[C@@H](O)C[C@]3(C)[C@]2(C(=O)CO)O1 [Fluocinolone acetonide]	49	84	–	–
CCC(=O)O[C@]1(C(=O)S[C@H]2CCOC2=O)[C@H](C)C[C@H]2[C@@H]3C[C@H](F)C4=CC(=O)C=C[C@]4(C)[C@@]3(F)[C@@H](O)C[C@@]21C [Example 2, 6α,9α-Difluoro-11β-hydroxy-16α-methyl-3-oxo-17α-propionyloxy-androsta-1,4-diene-17β-carbothioic acid S-(2-oxo-tetrahydro-furan-3S-yl)-ester]	–	–	42	0
